The target in the assay is T1, muscarinic receptors of the cerebral cortex (Rattus norvegicus, UniProt P08482).
T1 construct: displacement of ^3H-pirenzepine from cerebral cortex homogenate; from tissue; host or cells: rat cerebral cortex homogenate
T1 sequence (P08482 1-460): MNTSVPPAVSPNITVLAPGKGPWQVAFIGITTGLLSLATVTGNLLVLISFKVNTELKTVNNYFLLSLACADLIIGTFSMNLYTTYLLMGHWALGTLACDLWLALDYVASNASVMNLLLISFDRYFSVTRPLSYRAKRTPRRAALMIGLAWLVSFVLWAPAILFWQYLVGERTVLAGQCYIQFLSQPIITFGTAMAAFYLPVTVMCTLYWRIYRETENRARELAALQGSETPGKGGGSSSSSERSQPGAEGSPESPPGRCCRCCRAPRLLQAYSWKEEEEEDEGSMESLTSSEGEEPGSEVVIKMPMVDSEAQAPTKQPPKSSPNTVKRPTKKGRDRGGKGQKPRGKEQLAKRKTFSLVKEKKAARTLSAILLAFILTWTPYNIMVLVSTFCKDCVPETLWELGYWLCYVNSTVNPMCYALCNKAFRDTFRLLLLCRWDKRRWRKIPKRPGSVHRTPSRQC
In words: Antimuscarinic activity (in vitro binding studies): displacement of 3H-pirenzepine from cerebral cortex homogenate. More on the design: species or system male CD-COOBBS rats. Here is the method: Antimuscarinic activity was examined by studying the displacement of ^3H-pirenzepine from cerebral cortex homogenate according to the procedure reported below: • The cerebral cortex donors were male CD-COOBBS rats, 220-250 g body weight. The homogenization process was carried out in a Potter-Evelhjem apparatus in the presence of Na^+/Mg^++ HEPES buffer; pH 7.4 (100 mM NaCI, 10 mM MgC12, 20 mM HEPES), by filtering the suspension through two layers of cheesecloth. Binding curves for the under study compounds were derived indirectly from competition experiments against 0.5 nM ^3H-pirenzepine labelling the muscarinic receptors of the cerebral cortex. 1 ml of the homogenate was incubated for 45 min at 30° C in the presence of a marker ligand and different concentrations of the cold ligand, conditions under which equilibrium was reached as determined by appropriate association experiments. The incubation was terminated by centrifugation (12,000 rpm for 3 min) at room temperature using an Eppendorf microcentrifuge. The resultant pellet was washed twice with 1.5 ml saline to remove the free radioactivity and it was allowed to drain for some hours. The tips of the tubes containing the pellet were cut off and 200 µl of tissue solubilizer (Lumasolve, Lumac) were added and left to stand overnight. Radioactivity was then counted after addition of 4 ml of liquid scintillation mixture (Dimilume/Toluene 1:10 v:v, Packard)
Non-specific binding avaraged less than 30%. KD values (dissociation constants) were obtained by non-linear regression analysis on the basis of a one binding site model with TOPFIT-pharmacokinetic programme package (G. HEINZEL, "Pharmacokinetics during drug development: data analysis and evaluation techniques" Eds. G. BOLZER and J.M. VAN ROSSUM; p. 207, G. Fisher, New York, 1982) after correction for the radioligand occupancy shift according to the equation: Ko = ICso/1 + *C/*KD, where "C and *KD represent the concentration and the dissociation constant of the radioligand used, respectively.
(In general: Loss of bound radioactivity is the signal in a displacement assay; it reports binding, not function.)

The mark [1] stands for this setting: competition against 0.5 nM 3H-pirenzepine, rat cerebral cortex homogenate, 45 min at 30° C, corrected for radioligand occupancy shift, read-out: Dissociation constants (KD) for 3H-pirenzepine binding.

Molecules are shown by their SMILES. Structures can show the parent of a compound that is named as a salt. Where two headings read alike, the source gives them in different places.

Turning to `N=C(N)N1CCN(CC(O)(c2ccccc2)C2CCCCC2)CC1` (stereo not shown) [Compound 4, N-guanyl-N'-[(2-phenyl-2-cyclohexyl-2-hydroxy)-ethyl]-piperazine], the Ki under setting [1] stood at 17 nM.

`CC(=N)N1C2CCC1CC(OC(=O)C(CO)c1ccccc1)C2` (racemic) [Compound 64, N-iminoethyl-noratropine] had a Ki of 3.4 nM.

In turn, `CC(=N)N1C2CC(OC(=O)C(CO)c3ccccc3)CC1C1OC12` (single isomer, unassigned; (-)) [Compound 65, (-)-N-iminoethyl-norscopolamine] returned a Ki of 2 nM.

`CN=CN1CCC(=C(c2ccccc2)c2ccccc2)CC1` [Compound 28, Piperidine,4-(diphenylmethylene)-,1-[N-methyl-(iminomethyl)]]: under setting [1], the Ki was 32 nM.

Consider `N=C(N)N1CCC(CC(O)(c2ccccc2)c2ccccc2)CC1` [Compound 24, 2-[(N-guanyl-piperidin-4-yl)]-1,1-diphenyl-ethanol], for which the Ki under setting [1] is 38 nM.

For the molecule `CC(=N)N1CCN(CC(O)(c2ccccc2)C2CCCCC2)CC1` (stereo not shown) [Compound 62, N-(iminoethyl)-N'-[(2-hydroxy-2-phenyl-2-cyclohexyl)ethyl]-piperazine], the Ki under setting [1] was determined as 30 nM.

On to `N=C(N)N1CCC(OC(=O)C(c2ccccc2)c2ccccc2)CC1` [Compound 14, Benzeneacetic acid,a-phenyl-,1-guanyl-4-piperidinyl ester], for which, under setting [1], the Ki worked out at 15 nM.

For the molecule `N=CN1CCN(CC(O)(c2ccccc2)C2CCCCC2)CC1` (stereo not shown) [Compound 35, N-iminomethyl-N'-[(2-hydroxy-2-phenyl-2-cydohexyl)-ethyl]-piperazine], the Ki under setting [1] stood at 12 nM.

Take `N=CN1CCC(OC(=O)C(c2ccccc2)c2ccccc2)CC1` [Compound 34, Benzeneacetic acid,α-phenyl,1-(iminomethyl)-4-piperidinyl ester, hydrochloride]: the Ki under setting [1] turned out to be 4.4 nM.

`N=C(N)N1C2CCC1CC(OC(=O)C(CO)c1ccccc1)C2` (racemic) [Compound 1, N-guanyl-Noratropine] yielded a Ki of 7 nM.

The values are drawn from patent EP0309424A2, “New amidino derivatives” (ISTITUTO DE ANGELI S.p.A., priority 1987, dated 1989).
